US20130324520A1, “RXRG MODULATORS FOR THE TREATMENT OF CANCER” (SLOAN-KETTERING INSTITUTE FOR CANCER RESEARCH, priority 2011, published 2013)
“Also recorded” adds a separate entry of the source.

Columns and labels:
[1] = test system: A549; experiment: Drug treatment on cancer cell lines, cell counting; type: cell-based; settings: for effect of combination with HX531 on growth: MEK inhibitor plus HX531; for growth inhibition, single agent: day 3, 6 uM HX531, 10 uM PD98059, 100 nM PD0325901
Description: (§1) DMSO was used for control.

[2] = test system: PC931019; experiment: Drug treatment on cancer cell lines, cell counting; type: cell-based; settings: for growth inhibition, single agent / effect of combination with HX531 on growth: day 9; for growth inhibition, single agent: 6 uM HX531, 10 uM PD98059, 100 nM PD0325901; for effect of combination with HX531 on growth: MEK inhibitor plus 6 uM HX531; for cell growth: KRAS mutated pancreatic cancer (PC1019)
Description: as §1

[3] = test system: HCT116; experiment: Drug treatment on cancer cell lines, cell counting; type: cell-based; settings: day 3; for growth inhibition, single agent: 6 uM HX531, 10 uM PD98059, 100 nM PD0325901; for effect of combination with HX531 on growth: MEK inhibitor plus 6 uM HX531
Description: as §1

[4] = test system: PC941102; experiment: Drug treatment on cancer cell lines, cell counting; type: cell-based; settings: KRAS mutated pancreatic cancer (PC1102)
Description: as §1

[5] = test system: H820; experiment: Drug treatment on cancer cell lines, cell counting; type: cell-based; settings: EGFR mutated lung cancer
Description: as §1

[6] = test system: H3255; experiment: Drug treatment on cancer cell lines, cell counting; type: cell-based; settings: EGFR mutated lung cancer
Description: as §1

[7] = test system: H1975; experiment: Drug treatment on cancer cell lines, cell counting; type: cell-based; settings: EGFR mutated lung cancer
Description: as §1

[8] = test system: H1650; experiment: Drug treatment on cancer cell lines, cell counting; type: cell-based; settings: EGFR mutated lung cancer
Description: as §1

[9] = test system: PC930201; experiment: Drug treatment on cancer cell lines, cell counting; type: cell-based; settings: KRAS mutated pancreatic cancer (PC0201)
Description: as §1

[10] = test system: EGFR and KRAS activated NSCLC, pancreatic, and colon cancers; experiment: Drug treatment on cancer cell lines, cell counting (group of lines); type: cell-based; settings: for cell growth / proliferation: KRAS or EGFR mutant colon, NSCLC, pancreatic, hepatoma cells, concentration not given
Description: as §1

[11] = test system: PTEN mutated prostate cancer, small cell lung cancer, and breast cancer; experiment: as above; type: cell-based; settings: PTEN mutant lines as a group
Description: as §1

[12] = test system: RB1 mutated retinoblastoma; experiment: RXRG ligands on retinoblastoma cell growth; type: cell-based
Method: (§2) Colon, lung, pancreatic cancer, retinoblastoma and other cell lines were cultured in culture medium consisting of IMDM (Medium Lab, MSKCC, NY) with 10% FBS (SH3008803, HyClone, Thermo Scientific), 2 mM glutamine (Invitrogen), 55 μM beta-mercaptoethanol (Invitrogen), 1% Penicillin/streptomycin (Invitrogen), and 2.5 μg/ml Plasmocin (Invivogen), at 37° C. in a humidified incubator with 5% CO2. Melanoma cell lines were culture in RPMI with above additives.
(§3) Colon, lung, pancreatic, breast, prostate cancer cell lines and other cancer cell lines were cultured in 10 cm dishes or 24 well plates with complete IMDM or RPMI (for melanoma) with 30-50% confluence. […] DMSO was used for control. After 3-6 days treatment, cells were collected and counted with trypan blue. Dose-effectiveness curves were generated with series dilution of compounds in medium for treatment of cells.

[13] = test system: Saos2; experiment: Drug treatment on cancer cell lines, cell counting; type: cell-based; settings: UVI3003 10 uM (FIG. 23)
Description: as §1

[14] = test system: H1755; experiment: Drug treatment on cancer cell lines, cell counting; type: cell-based; settings: UVI3003 10 uM (FIG. 23)
Description: as §1

[15] = test system: MDA-MB-468; experiment: Drug treatment on cancer cell lines, cell counting; type: cell-based; settings: UVI3003 10 uM (FIG. 23)
Description: as §1

[16] = test system: H1975; experiment: Cell cycle analysis; type: cell-based; settings: EGFR mutant NSCLC, day 3
[17] = test system: PC931019; experiment: Cell cycle analysis; type: cell-based; settings: KRAS mutant pancreatic cancer, day 3
Method: After drug treatment, cells were collected for cell cycle analysis, RNA isolation, quantitative PCR, western blot, and immunofluorescence. For cell cycle analysis, retinoblastoma, neuroblastoma, lung, pancreatic, and colon cancer cells were collected and dissociated on days 3, 5, 7, 9, 11, and 16 after treatment. Cells were fixed by 70% cold ethanol alcohol while vortex, and put in −20° C. for storage. […] At 24 hours after treatment, 4 ug/ml Aphidicolin was added to cells with compounds for 24 hr. Aphidicolin was removed by centrifugation and PBS wash, and then added to new wells with fresh medium and compounds. Cells were collected and fixed before addition of aphidicolin, immediately after removal of aphidicolin, and every two hours thereafter until 16-18 hours.
The tubes with cells were taken out of the freezer and alcohol was removed by centrifugation. 150 ul of 0.06 mg/ml propidium iodide with 0.1% NF40 was added to the cells, and then 100 ul of 2 mg/ml of RNase was added to the cells. These were mixed well and incubated at 37° C. for 30 min. The cell ploidy according to DNA contents were measured in FACSCalibur with FL3-Width and FL3-Height as the parameter. Flowjo was used for analysis of the cell cycle changes.

[18] = test system: SCLC; experiment: Drug treatment on cancer cell lines, cell counting (group of lines); type: cell-based; settings: UVI3003 10 uM (FIG. 23); some PTEN mutated SCLC
Description: as §1

[19] = test system: normal fibroblasts WI38; experiment: Drug treatment on cell lines, cell counting; type: cell-based; settings: UVI3003 10 uM (FIG. 23)
Description: as §1

[20] = patients; cited from earlier work
[21] = test system: RB177; experiment: RXRG ligands on retinoblastoma cell growth; type: cell-based
Method: as §2, §3

Row | SMILES | effect of combination with HX531 on growth [1] | growth inhibition, single agent [1] | growth inhibition, single agent [2] | effect of combination with HX531 on growth [2] | growth inhibition, single agent [3] | effect of combination with HX531 on growth [3] | cell growth [4] | cell growth [5] | cell growth [6] | cell growth [7] | cell growth [2] | cell growth [8] | cell growth [9] | cell growth / proliferation [10] | cell growth [11] | further results
1 | COc1cccc(-c2cc(=O)c3ccccc3o2)c1N [PD98059] | synergistic effects | moderate growth inhibition | growth inhibition | same synergistic effects | moderate growth inhibition | Synergistic effects |  |  |  |  |  |  |  |  |  | 
2 | CCCCCCOc1cc2c(cc1N(C)c1ncc(C(=O)O)cn1)C(C)(C)CCC2(C)C [PA452] |  |  |  |  |  |  | sensitive | sensitive | sensitive | sensitive | sensitive | sensitive | sensitive | efficiently suppress | suppress the growth | 
3 | CCCCCOc1cc2c(cc1-c1cc(/C=C/C(=O)O)ccc1O)C(C)(C)CCC2(C)C [UVI3003] |  |  |  |  |  |  | sensitive | sensitive | sensitive | sensitive | sensitive | sensitive | sensitive | efficiently suppress | suppress the growth | relative cell number after treatment ([12]; UVI3003 10 uM (FIG. 23)): not sensitive; relative cell number after treatment [13]: not sensitive; relative cell number after treatment [14]: sensitive; relative cell number after treatment [15]: sensitive; cell cycle, G1-S transition [16]: inhibited G1-S transition; cell cycle, G1-S transition [17]: similarly sensitive; also recorded: inhibited G1-S transition; relative cell number after treatment ([10]; UVI3003 10 uM (FIG. 23), incl. gastric cancer): sensitive; relative cell number after treatment [18]: sensitive; relative cell number after treatment [19]: not sensitive
4 | O=C(NOC[C@H](O)CO)c1ccc(F)c(F)c1Nc1ccc(I)cc1F [PD0325901] | synergistic effects | moderate growth inhibition | growth inhibition | same synergistic effects | moderate growth inhibition | Synergistic effects |  |  |  |  |  |  |  |  |  | outcome of clinical trial (toxicity) [20]: terminated because of high toxicity in patients
5 | CC1=C(/C=C/C(C)=C\C=C\C(C)=C\C(=O)O)C(C)(C)CCC1 [9 cis RA, 9-cis-Retinoic acid] |  |  |  |  |  |  |  |  |  |  |  |  |  |  |  | retinoblastoma cell growth ([12]; in vitro): suppressed retinoblastoma cell growth; cell growth [21]: suppressed cell growth
